Experimental data reported in patent publication US20240156832A1, “METHODS OF METABOLIZING METOPIMAZINE AND ITS SALTS” (Neurogastrx, Inc., priority 2020, published 2024).
“Also recorded” adds a separate entry of the source.

Columns and labels:
[1] = test system: human microsomal liver amidase; assay: Incubations with HLM for microsomal hydrolase/amidase activity; type: in vitro ADME
Procedure: Incubations with HLM for Microsomal Hydrolase/Amidase Activity Prior to the reaction for amidase activity, the reaction mixture containing KPi buffer (pH 7.4, 8.4, or 9.4) and HLM was pre-incubated at 50° C. for 5 minutes to inactivate CYP and FMO activities in HLM. The mixture was placed on ice to cool down. An aliquot was taken out which was considered as t=0 min incubation. Then 10 μM MPZ was added into the remaining mixture and incubated at 37° C. on an orbital shaker for 60 minutes. A parallel set of incubations was conducted with 10 μM MPZ in the presence at 2 and 16 μM, of BNPP (a known inhibitor of amidase). All reactions were in triplicate. The total percentage of organic solvent in incubation mixture was ≤0.1%. The reactions were terminated by the addition of chilled acetonitrile: methanol, 90:10, (v/v). The samples were vortex-mixed and stored at ≤−70° C. and were subjected analyzed by LC MS/MS.

microsomal FMOs in HLM = assay: Incubation with HLM for FMO (pH 8.4, methimazole, heat); type: in vitro ADME, human; settings: HLM pH 8.4, 1 mM methimazole
Procedure: MPZ, at 1.0 and 10.0 μM, was incubated with HLM or HKM to determine the contribution of microsomal FMOs on the metabolism of MPZ.
A reaction mixture containing KPi buffer (pH 8.4), HLM or HKM (0.5 mg/mL protein) and MPZ (1.0 and 10.0 μM) was pre-incubated for 3-5 minutes at 37° C. The reaction was initiated by the addition of NADPH into the reaction mixture. Reaction was conducted for 0 and 60 min. A positive control (benzydamine, 100 μM) was incubated in duplicate for 0 and 20 minutes. Parallel incubation was conducted by adding 1 mM methimazole, a non-specific FMO inhibitor, under identical conditions. Heat inactivated microsomes (50° C. for at least 5 minutes) was incubated under identical conditions negative control. All other procedures were the same as described previously.

[2] = test system: cytochrome P450 enzymes in HLM; assay: HLM incubation with CYP inhibitors, with and without NADPH; settings: peak area ratio, 60 min, ABT 1 mM, quinidine 1 μM
Procedure: Initially, two sets of incubations were conducted with HLM (0.5 mg/mL microsomal protein), 1 and 1011M MPZ, 100 mM KPi buffer (pH 7.4) where one set was in the presence and the other set was in the absence of 1 mM ABT, a non-specific CYP inhibitor for 60 minutes. This allowed the assessment of total CYP contribution for MPZ metabolism. Then, CYP-specific chemical inhibitors were used to assess the contribution of individual major CYP-isoforms where HLM were incubated with 1 or 1011M MPZ in the presence and in the absence of each CYP specific inhibitor at 37° C. for 60 minutes. The following CYP-isoform specific chemical inhibitors were used; furafylline (10 μM), tranylcypromine (10 μM), montelucast (0.5 μM), sulfaphenazole (5 μM), (+) benzylnirvinol (5 μM), quinidine (1 μM) and itraconazole (2.5 μM), for CYP1A2, CYP2B6, CYP2C8, CYP2C9, CYP2C19, CYP2D6 and CYP3A4/5. Parallel incubation with seven CYP specific probe substrates were included in as positive controls. For negative control reaction, MPZ was incubated at 37° C. in duplicate in reaction mixture devoid of NADPH. All other procedures were the same as previously described.

[3] = Incubation of MPZ in human liver S9; type: in vitro ADME; settings: human liver S9, 60-minute incubation
Procedure: Initial experiment was conducted with S9 fractions from liver and intestine to assess the role of liver and intestinal enzymes in the metabolism of MPZ. The reaction mixture contained 2.5 μM MPZ, pooled human liver or intestine S9 fraction (1 mg/mL S9 protein), 100 mM KPi buffer (pH 7.4). The reaction mixture was pre-incubated for 3-5 min at 37° C. in a humidified incubator filled with 5% CO2 followed by the addition of NADPH (1 mM) to initiate the reaction. The reaction was incubated for 0 and 60 min. The total percentage of organic solvent in incubation mixture was <0.1%. The reactions were terminated by the addition of sample mixture of acetonitrile and ethanol (90:10, v/v). The positive control substrate, 7-EC, was incubated in triplicate in an identical manner as MPZ for S9 fractions.

[4] = Procedure: For protein concentration optimization, MPZ at 1 μM was incubated with varying concentration of HLM proteins (0.1, 0.25, 0.5, and 1.0 mg/mL microsomal protein), 100 mM KPi buffer (pH 7.4). After pre-incubation for 3-5 minutes at 37° C., the reaction was initiated by the addition of NADPH (1 mM) for 60 minutes in triplicates.
For incubation time optimization, MPZ at 1 μM was incubated with pooled HLM (0.5 mg/mL microsomal protein) and 100 mM KPi buffer (pH 7.4). After pre-incubation for) for 3-5 minutes at 37° C., the reaction was initiated by the addition NADPH (1 mM) incubated for 0, 10, 20, 40, 60, and 90 minutes to determine the optimal incubation time (linear range). All metabolic reactions in this study were terminated by the addition of chilled organic solvent (acetonitrile:ethanol 90:10, v/v) containing internal standards, unless otherwise indicated.
LC separation conditions were developed for MPZ and its metabolites (MPZA and MPZS), 7 hydroxycoumarin, each metabolite of CYP probe substrate, benzydamine N oxide, and phthalazine. The LC MS/MS system consisted of a Shimadzu Nexera X2 LC-30 UPLC system (Shimadzu Corporation, Kyoto, Japan), and an API 4000 triple quadrupole mass spectrometer (SCIEX, Framingham, MA) was used for analysis. All analytes were analyzed using electrospray ionization (ESI) in positive ion mode except for 7-EC, which used negative ion mode. The LC-MS/MS system was controlled by Analyst software (version 1.6.1, SCIEX, Framingham, MA).
For each analytical method, a calibration curve was generated for the quantification of MPZ and its two metabolites (MPZA and MPZS). […] PAR was also used for all positive control compounds.
% parent remaining=(mean concentration or PAR at each sampling time point/mean concentration or PAR of time zero)×100

## O=[N+]([O-])c1ccc(OP(=O)(O)Oc2ccc([N+](=O)[O-])cc2)cc1 [BNPP, bis(4-nitrophenyl) phosphate]
[1]; BNPP 2 μM, HLM, 10 μM MPZ, even at the highest pH
  activity (MPZA formation) inhibited: at least 97%
[1]; BNPP 16 μM, HLM, 10 μM MPZ, all three pH values
  MPZA formation inhibited: > 99%
[1]; BNPP 2 and 16 μM, pH 7.4, 8.4, 9.4
  inhibition of MPZA formation in HLM (in words): dramatically inhibited the formation of MPZA in HLM; also recorded: effectively inhibits formation of MPZA under all conditions

## Cn1cc[nH]c1=S [methimazole, reference compound]
Microsomal FMOs in HLM
  effect of FMO inhibitor on MPZA formation: not inhibited

## C=C[C@H]1C[N@@]2CC[C@H]1C[C@@H]2[C@@H](O)c1ccnc2ccc(OC)cc12 [quinidine, reference compound]
[2]
  effect of CYP inhibitor on MPZH formation: inhibited formation of MPZH

## metopimazine sulfoxide [MPZS]
[3]
  metabolites formed: formed
[4]
  Peak Area at Time 0: 0
  Peak Area at Time 90 min: 59
